{
  "source": "patent US20220243177A1",
  "about": "“METHODS OF CULTURING QUIESCENT HEMATOPOIETIC STEM CELLS AND TREATMENT METHODS” (priority 2019, published 2022)",
  "key": {"[1]": {"test_system": "MMP-low and MMP-high HSCs", "experiment": "Long term culture-initiating cell (LTC-IC) assay", "format": "cell-based, mouse", "procedure": "Long Term Culture-Initiating Cell (“LTC-IC”) Assay: Long-term cultures were initiated as described in Lemieux et al., “Characterization and Purification of a Primitive Hematopoietic Cell Type in Adult Mouse Marrow Capable of Lymphomyeloid Differentiation in Long-Term Marrow ‘Switch’ Cultures,” Blood 86: 1339-1347 (1995), which is hereby incorporated by reference in its entirety. […] The frequency of long-term culture-initiated cells (“LTC-ICs”) was determined by limiting dilution and applying Poisson distribution statistics as described in Hu & Smyth, “ELDA: Extreme Limiting Dilution Analysis for Comparing Depleted and Enriched Populations in Stem Cell and Other Assays,” J. Immunol. Methods 347: 70-78 (2009), which is hereby incorporated by reference in its entirety."}, "[2]": {"test_system": "MMP-low and MMP-high HSCs", "experiment": "Lysosome acidity (LysoTracker green, LysoSensor blue)", "format": "cell-based, mouse", "conditions": "ConA 40 nM, 5 hours", "procedure": "To test lysosome acidity in MMP-low and MMP-high HSCs, FACS-sorted MMP-low and MMP-high HSCs were incubated in Stem-Span media with SCF (10 ng/mL) and TPO (20 ng/mL) or amino acid free medium (starvation) containing ConA (40 nM) or DMSO control for 5 hr; and then cells were incubated with […] Lysotracker green (LTR) or 1mM Lysosensor Blue diluted in above medium for 30 min (37° C., 5% CO2). Cells were rapidly washed with warm PBS (37° C.) three times, mounted and images were captured using a Zeiss LSM880 confocal microscope using a 40× objective (N.A. 1.4)."}, "[3]": {"test_system": "MMP-low and MMP-high HSCs", "experiment": "Glucose uptake assay (2NBDG)", "format": "cell-based, mouse", "conditions": "ConA (25 nM, 50 nM), 18 hours", "procedure": "Glucose Uptake Assay: For measurement of glucose uptake, freshly FACS-purified MMP-low and MMP-high HSCs (at least 2,000 cells pooled in average from 8 mice) were cultured immediately in […] of glucose, glutamine, pyruvate free medium containing 100 or 200 μM 2-(n-(7-nitrobenz-2-oxa-1,3-diazol-4-yl amino)-2-deoxyglucose (2-NBD-Glucose, 2NBDG) for 2 hours. Cells were then washed multiple times in PBS, re-suspended in PBS containing 1 μg/ml DAPI, and analyzed by flow cytometry for 2-NBD glucose fluorescence in the FITC channel. In some experiments cells were cultured in StemSpan medium (StemCell Technology) supplemented with SCF (100 ng/ml) and TPO (20 ng/ml), treated with or without STF-31 ([…]), ConA (25, 50 nM), dimethyl alpha ketoglutarate (MOG, 1 mM), methyl pyruvate (MP, 1 mM) or DMSO, incubated at 37° C. in a humidified atmosphere with 5% CO2 for 6 or 18 hours before removing culture medium from each well, washing extensively and adding […] of glucose, glutamine, pyruvate free medium containing […] of 2 NBDG for 2 hours before washing cells multiple times in PBS and analyzing by flow cytometry. Quantification of 2NBDG uptake was measured by the geometric mean fluorescence intensity (“MFI”) as well as % of 2NBDG^+ cells."}, "[4]": {"test_system": "aged MMP-low and -high LT-HSCs transplanted into lethally irradiated mice", "experiment": "Long-term in vivo competitive repopulation assay of aged HSCs after ex vivo ConA", "set-up": "species or system mouse", "procedure": "FIGS. 21A-21C show repression of lysosomal activity ex vivo greatly improves in vivo competitive repopulation of old HSCs. FIG. 21A is a schematic of long-term in vivo competitive repopulation assay. FACS-sorted (5000) aged MMP-low and -high (CD45.2) long-term (LT) HSCs were cultured in vitro in DMSO control or Con A (40 nM) for 4 days after which 100 cells from each group were injected into lethally irradiated recipient (CD45.1) mice along with 2×10^5 CD45.1 total bone marrow competitor cells (n=7). FIG. 21B is a graph showing contribution of donor-derived (CD45.2) cells to the peripheral blood (PB) of primary recipient mice (CD45.1) in a long-term competitive repopulation assay. FIG. 21C is a graph showing lineage output as a percentage of total CD45.2 donor-derived cells in primary recipients. Data expressed as Mean±SEM (**P<0.01, ***P<0.001). Note only ConA-treated old HSCs and not control-treated HSCs generate over 1% chimerism in transplanted animals after 21 weeks."}, "[5]": {"conditions": "aged HSCs, Con A 40 nM, two days"}},
  "data": [
    {"compound": "C/C=C/[C@H]1O[C@@](O)([C@@H](C)[C@H](O)[C@H](C)[C@H]2OC(=O)/C(OC)=C/C(C)=C/[C@@H](C)[C@@H](O)[C@@H](CC)[C@@H](O)[C@H](C)C/C(C)=C/C=C/[C@@H]2OC)C[C@@H](O[C@H]2C[C@@H](O)[C@H](OC(N)=O)[C@@H](C)O2)[C@@H]1C", "note": "[ConA, concanamycin A]", "values": [
      {"measurement": "enhanced frequency of LTC-ICs, MMP-high HSCs", "setting": "[1]; ConA 40 nM, 48-hour or 4-day", "result": 2.5, "unit": "fold"},
      {"measurement": "enhanced frequency of LTC-ICs, MMP-low HSCs", "setting": "[1]; ConA 40 nM, 48-hour or 4-day", "result": 1.5, "unit": "fold"},
      {"measurement": "size of LTC-IC-derived colonies", "setting": "[1]; ConA 40 nM, two days", "result": "increased size of colonies"},
      {"measurement": "LTC-IC-derived colonies from aged HSCs", "setting": "[1]; [5]", "result": "increased the LTC-IC-derived colonies"},
      {"measurement": "number of LTC-IC recovered from aged HSC cultures", "setting": "[1]; [5]", "result": "improved the number"},
      {"measurement": "lysosomal acidity", "setting": "[2]", "result": "reduced"},
      {"measurement": "decrease of glucose uptake in MMP-high HSCs", "setting": "[3]", "result": 19, "unit": "fold"},
      {"measurement": "effect on reducing the viability under the glucose uptake condition", "setting": "[3]", "result": "mostly restricted to MMP-high and subtle in MMP-low HSCs"},
      {"measurement": "lineage output of aged MMP-high HSCs", "setting": "[4]; 4-day cultured, Con A 40 nM", "result": "balanced their lineage output"},
      {"measurement": "competitive repopulation ability of aged MMP-high HSCs", "setting": "[4]; 4-day cultured, Con A 40 nM, 100 cells", "result": "remarkably improved"},
      {"measurement": "self-renewal of old HSCs and their balance blood production", "setting": "[4]; ex vivo ConA treatment (FIG. 19 and FIG. 20)", "result": "improves significantly"},
      {"measurement": "self-renewal of aged HSCs in secondary transplants", "setting": "[4]; mice receiving control-treated HSCs died", "result": "improved self-renewal in secondary transplants"},
      {"measurement": "survival of recipients in secondary transplantation", "setting": "[4]; old HSCs, 4-day ex vivo ConA, not control-treated", "result": "survive in secondary transplantation"},
      {"measurement": "chimerism in transplanted animals", "setting": "[4]; old HSCs, after 21 weeks, control-treated HSCs do not", "result": "over 1%"}
    ]}
  ]
}
